Laboratory results reported in US8642259B2, “Method for identifying substances capable of modulating the activity of a target molecule” (Sanofi-Aventis Deutschland GmbH, priority 2002, dated 2014).

Columns and labels:
[1] = target: human GPCR EDG1 (Homo sapiens, UniProt P21453); test: Growth readout (FUS1-HIS3, turbidity at 630 nm), yeast strain YLJ21 expressing EDG1; format: cell-based; conditions: 2 mM 3-AT; 23 h at 30° C.; FIG. 3B left-hand graph
Procedure: (§1) The human GPCRs cloned into vector p426GPD are transformed into the appropriate yeast strain and incubated on SC selection plates without uracil and with 2% glucose as carbon source (SC/Gluc-Ura) at 30° C. for 3 days. The single cell colonies thus obtained are then utilized in order to inoculate 2 ml overnight cultures in SC/Gluc-Ura. The next day, the cells are diluted 1:100 in SC/Gluc-Ura-His pH 6.8. In the case of yeast strains using the FUS1 promoter for reporter gene expression, 2-10 mM 3-aminotriazole (3-AT, Sigma) are additionally added to said medium. In each case 90 μl of the diluted cell suspension are pipetted into a well of a 96-well microtiter plate, which already contains 10 μl of the ligand to be studied. The plates are incubated with or without shaking at 30° C. for 5-24 h. […] All measurements are averages from triplicate determinations. […] The transformed yeasts were then cultivated in 2 ml of SC/Gluc-Ura at 30° C. overnight. The next day, the cultures were diluted 1:100 in SC/Gluc-Ura-His pH 6.8 medium without (FIG. 3A) or with 2 mM 3-AT (FIG. 3B). […] The turbidity resulting from growth of the yeast cells was measured at 630 nm in the photometer (FIGS. 3A and B, in each case left-hand graph).

[2] = target: T1, human GPCR EDG5 (Homo sapiens, UniProt O95136); test: Growth readout (FUS1-HIS3, turbidity at 630 nm), yeast strain YLJ21 expressing EDG5; format: cell-based; conditions: 2 mM 3-AT; 23 h at 30° C.; FIG. 3B left-hand graph
T1 construct: expressed in transfected cells; host or cells: Saccharomyces cerevisiae strain YLJ21 (endogenous Gpa1), episomal vector p426GPD
Procedure: as §1

[3] = system: human M1 muscarinic receptor, somatostatin receptor 2 and EDG5
Procedure: The human GPCRs cloned into vector p426GPD are transformed into the appropriate yeast strain and incubated on SC selection plates without uracil and with 2% glucose as carbon source (SC/Gluc-Ura) at 30° C. for 3 days. The single cell colonies thus obtained are then utilized in order to inoculate 2 ml overnight cultures in SC/Gluc-Ura. The next day, the cells are diluted 1:100 in SC/Gluc-Ura-His pH 6.8. In the case of yeast strains using the FUS1 promoter for reporter gene expression, 2-10 mM 3-aminotriazole (3-AT, Sigma) are additionally added to said medium. In each case 90 μl of the diluted cell suspension are pipetted into a well of a 96-well microtiter plate, which already contains 10 μl of the ligand to be studied. The plates are incubated with or without shaking at 30° C. for 5-24 h. This is followed by adding to each well 50 μl of assay mix. The assay mix consists of 150 μg/ml digitonin (Sigma), 300 μg/ml chlorophenol red β-D-galactopyranoside (CPRG, Roche), 300 mM sodium phosphate buffer pH 6.7. After incubation with or without shaking at 30° C. for 2 h, β-galactosidase activity is measured as absorption at 574 nm in a spectrophotometer (Spectramax Plus, Molecular Devices). The data are analyzed and dose-response curves are drawn using the Graphpad Prism 3.0 computer program. All measurements are averages from triplicate determinations. […]

T1 sequence (O95136 whole entry): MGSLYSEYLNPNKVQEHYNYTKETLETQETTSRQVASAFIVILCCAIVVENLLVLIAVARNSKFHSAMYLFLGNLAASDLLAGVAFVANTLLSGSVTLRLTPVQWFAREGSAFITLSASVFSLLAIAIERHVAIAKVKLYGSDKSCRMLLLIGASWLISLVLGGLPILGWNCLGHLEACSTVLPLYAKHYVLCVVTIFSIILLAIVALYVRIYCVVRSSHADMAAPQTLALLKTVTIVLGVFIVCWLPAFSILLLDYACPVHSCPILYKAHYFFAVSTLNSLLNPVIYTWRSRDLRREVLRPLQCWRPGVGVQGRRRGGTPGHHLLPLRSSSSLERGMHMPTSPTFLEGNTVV
human GPCR EDG1, sequence (P21453 whole entry): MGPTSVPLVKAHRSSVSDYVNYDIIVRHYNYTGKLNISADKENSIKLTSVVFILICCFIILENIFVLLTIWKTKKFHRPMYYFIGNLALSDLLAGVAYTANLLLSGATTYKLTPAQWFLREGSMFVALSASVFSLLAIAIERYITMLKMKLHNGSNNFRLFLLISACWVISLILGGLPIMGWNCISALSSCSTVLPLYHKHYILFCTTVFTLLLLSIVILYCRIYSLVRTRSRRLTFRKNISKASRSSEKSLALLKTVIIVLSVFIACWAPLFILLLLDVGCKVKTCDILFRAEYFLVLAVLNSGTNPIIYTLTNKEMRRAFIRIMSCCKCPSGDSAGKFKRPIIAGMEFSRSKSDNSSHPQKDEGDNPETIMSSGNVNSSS

Compound | dose dependence of the measured signal (turbidity at 630 nm) [1] | dose dependence of the measured signal (turbidity at 630 nm) [2] | detection of the agonist in the receptor mixture [3]
CCCCCCCCCCCCC/C=C/[C@@H](O)[C@@H](N)COP(=O)(O)O [sphingosine 1-phosphate] | level of the measured signal is dependent on the amount of sphingosine 1-phosphate | level of the measured signal is dependent on the amount of sphingosine 1-phosphate | can also be detected in the mixture
somatostatin-14 |  |  | can also be detected in the mixture
